Values quoted from earlier work in patent US20260048144A1, “SECRETED RNA THERAPEUTICS FOR NUCLEAR DELIVERY” (H. Lee Moffitt Cancer Center and Research Institute, Inc., priority 2022, published 2026).

Tests used:
[1] = tested in humans; Di Stasi et al. 2011
[2] = infused in thousands of lymphoma and rheumatoid arthritis patients

| Molecule | safety / adverse effects in humans [1] | side effect profile [2] |
| --- | --- | --- |
| CC[C@H](C(=O)N1CCCC[C@H]1C(=O)O[C@H](CCc1ccc(OC)c(OC)c1)c1cccc(OCC(=O)NCCNC(=O)COc2cccc([C@@H](CCc3ccc(OC)c(OC)c3)OC(=O)[C@@H]3CCCCN3C(=O)[C@@H](CC)c3cc(OC)c(OC)c(OC)c3)c2)c1)c1cc(OC)c(OC)c(OC)c1 [AP1903] | deemed safe without adverse effects |  |
| Rituximab |  | favorable side effect profile |
